For one compound, IC50 results are on record in BindingDB's records for patent US10913744 (Dana-Farber Cancer Institute, 2021).

pIC50: −log10 of the molar value.

Experiment [1] addresses T1, Leucine-rich repeat serine/threonine-protein kinase 2 [1326-2527] (Homo sapiens, UniProt Q5S007).
T1 construct: 1326-2527
T1 sequence (Q5S007 whole entry): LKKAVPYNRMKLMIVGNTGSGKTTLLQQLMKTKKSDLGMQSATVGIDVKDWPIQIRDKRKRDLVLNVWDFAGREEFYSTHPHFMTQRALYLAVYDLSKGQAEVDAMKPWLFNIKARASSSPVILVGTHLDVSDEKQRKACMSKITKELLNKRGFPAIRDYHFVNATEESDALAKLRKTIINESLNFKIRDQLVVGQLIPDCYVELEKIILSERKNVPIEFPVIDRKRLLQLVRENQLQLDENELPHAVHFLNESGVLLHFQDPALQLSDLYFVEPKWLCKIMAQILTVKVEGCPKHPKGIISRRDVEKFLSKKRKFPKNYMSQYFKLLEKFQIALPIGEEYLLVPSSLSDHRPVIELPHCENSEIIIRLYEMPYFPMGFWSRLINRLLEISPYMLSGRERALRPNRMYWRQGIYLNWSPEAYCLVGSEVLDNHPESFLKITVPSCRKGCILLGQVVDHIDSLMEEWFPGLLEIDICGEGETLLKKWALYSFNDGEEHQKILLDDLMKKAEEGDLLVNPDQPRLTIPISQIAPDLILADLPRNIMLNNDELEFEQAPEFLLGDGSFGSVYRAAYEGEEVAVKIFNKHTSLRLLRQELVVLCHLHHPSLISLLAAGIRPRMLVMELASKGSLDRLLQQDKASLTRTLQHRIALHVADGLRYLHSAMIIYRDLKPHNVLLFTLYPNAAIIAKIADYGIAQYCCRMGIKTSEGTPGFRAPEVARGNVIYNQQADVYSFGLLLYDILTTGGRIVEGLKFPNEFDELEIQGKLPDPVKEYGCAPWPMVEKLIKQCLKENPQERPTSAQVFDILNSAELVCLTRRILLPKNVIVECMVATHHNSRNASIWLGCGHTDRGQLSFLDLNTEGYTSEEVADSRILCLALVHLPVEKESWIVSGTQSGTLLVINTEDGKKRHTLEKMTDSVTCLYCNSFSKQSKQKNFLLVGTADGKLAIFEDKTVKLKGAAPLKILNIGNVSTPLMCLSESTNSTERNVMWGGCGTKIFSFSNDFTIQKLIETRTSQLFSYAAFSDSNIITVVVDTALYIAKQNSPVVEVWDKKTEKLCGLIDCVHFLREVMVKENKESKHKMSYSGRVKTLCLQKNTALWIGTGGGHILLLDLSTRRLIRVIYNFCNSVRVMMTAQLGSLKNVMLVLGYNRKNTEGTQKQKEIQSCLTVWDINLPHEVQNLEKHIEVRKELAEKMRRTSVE
The experiment can be described thus: Enzyme Assay. As to the method: (§1) Samples were washed extensively and the incorporation of [γ-32P]ATP into Nictide was quantified by Cerenkov counting. IC50 values were calculated with GraphPad Prism using non-linear regression analysis.

The target in experiment [2] is T2, Leucine-rich repeat serine/threonine-protein kinase 2 [1326-2527,G2019S] (Homo sapiens, UniProt Q5S007, G2019S).
T2 construct: 1326-2527
Kind of experiment: Enzyme Assay. As to the method:
as §1

For orientation: pIC50 means −log10 of the IC50, conventionally taken in molar units. High values mean a low IC50, low ones a high IC50.

T2 sequence (Q5S007 1326-2527 G2019S): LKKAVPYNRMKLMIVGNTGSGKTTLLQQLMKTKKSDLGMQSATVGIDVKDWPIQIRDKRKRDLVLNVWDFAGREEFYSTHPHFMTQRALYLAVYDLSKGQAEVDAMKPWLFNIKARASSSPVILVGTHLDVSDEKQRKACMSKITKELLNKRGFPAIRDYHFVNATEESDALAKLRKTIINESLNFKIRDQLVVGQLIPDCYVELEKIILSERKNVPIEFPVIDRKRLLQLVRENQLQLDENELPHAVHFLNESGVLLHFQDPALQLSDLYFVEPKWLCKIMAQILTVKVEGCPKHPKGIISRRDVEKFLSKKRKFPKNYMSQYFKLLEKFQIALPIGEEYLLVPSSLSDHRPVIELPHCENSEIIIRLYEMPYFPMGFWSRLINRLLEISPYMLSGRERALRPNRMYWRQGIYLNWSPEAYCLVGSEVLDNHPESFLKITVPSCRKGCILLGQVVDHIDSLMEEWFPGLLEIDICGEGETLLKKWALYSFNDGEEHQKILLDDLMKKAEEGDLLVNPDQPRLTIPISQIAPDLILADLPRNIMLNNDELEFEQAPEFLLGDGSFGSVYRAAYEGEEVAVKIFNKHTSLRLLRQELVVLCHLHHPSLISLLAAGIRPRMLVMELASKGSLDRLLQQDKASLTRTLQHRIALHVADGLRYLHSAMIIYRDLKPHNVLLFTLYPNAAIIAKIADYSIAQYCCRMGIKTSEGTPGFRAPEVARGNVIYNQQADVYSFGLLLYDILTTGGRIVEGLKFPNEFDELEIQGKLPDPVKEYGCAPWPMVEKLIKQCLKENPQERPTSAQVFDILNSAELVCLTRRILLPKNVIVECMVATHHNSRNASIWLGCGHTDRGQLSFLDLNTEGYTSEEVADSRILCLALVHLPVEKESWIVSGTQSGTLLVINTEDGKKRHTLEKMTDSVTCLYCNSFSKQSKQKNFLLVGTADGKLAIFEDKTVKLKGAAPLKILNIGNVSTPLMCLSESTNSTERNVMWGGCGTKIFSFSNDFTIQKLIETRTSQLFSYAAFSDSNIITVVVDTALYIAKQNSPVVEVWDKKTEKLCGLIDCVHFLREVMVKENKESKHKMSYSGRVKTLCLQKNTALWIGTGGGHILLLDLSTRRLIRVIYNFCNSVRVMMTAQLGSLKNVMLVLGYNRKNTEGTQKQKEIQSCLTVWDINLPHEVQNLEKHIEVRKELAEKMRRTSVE

For `CNc1nc(Nc2ccc(C(=O)N3CCOCC3)cc2OC)nc2[nH]ccc12` [US10913744, Compound 8], the figures for the pIC50 in experiment [1] and in experiment [2] were 8.59 and 8.29, respectively.
